Data reported in patent US20220401390A1, “TREATMENTS OF DIABETIC MACULAR EDEMA AND IMPAIRED VISUAL ACUITY” (KALVISTA PHARMACEUTICALS LIMITED, priority 2019, published 2022).

Tested on: subjects with center involved diabetic macular edema
Assay: Study 1: safety and tolerability of single ascending intravitreal doses
Type: in vivo, human
Source text: Study—an Open Label, Single Ascending Dose Study to Investigate the Safety and Tolerability of the Compound of Formula A Administered by Intravitreal Injection in Subjects with Center Involved Diabetic Macular Edema and Reduced Vision
The primary objective of the trial was to evaluate the local and systemic safety and tolerability of single ascending doses administered via intravitreal injection of the compound of Formula A in adult male and female subjects with central involved diabetic macular edema.
Following the signing of informed consent, subjects attended the clinic where screening assessments were recorded (Clinic Visit 1). When deemed eligible, subjects attended the clinic where baseline measurements were recorded (recorded as Day 0, Clinic Visit 2). Following confirmation of eligibility and the taking of baseline ophthalmic measurements, a single intravitreal injection of the compound of Formula A, was administered to the study eye as per Diabetic Retinopathy Clinical Research Network (DRCR.net) protocol.
Each subject returned on Day 1, 7, 14, 28 and 56 for safety and ophthalmic assessment. Pharmacokinetic assessment was also taken. In addition, the subject was contacted by the Study Site on Day 3 (+1-1 day) by telephone to inquire about the subject's visual wellbeing and to ask about any adverse events.
Once the highest safe and tolerated (or practical) dose had been established, the study proceeded to Part 2 in which 5 additional subjects were treated with the established highest safe and tolerated (or practical) dose according to the same protocol with the same procedures performed as described for subjects enrolled into Part 1.
Single 100 μL intravitreal injection of: • 1 μg-10 μg/mL of the compound of Formula A • 3 μg-30 μg/mL of the compound of Formula A • […] of the compound of Formula A
• Best Corrected Visual Acuity as measured by ETDRS EVA • Intraocular pressure • Color vision • Multifocal Electroretinogram (mfERG) • Humphrey Visual Field 24-2 (HVF 24-2) • Treatment-Emergent Adverse Events (TEAEs) • Changes on ophthalmic examination • Clinical laboratory test results • Vital signs • ECG findings

[1] = of the 14 subjects, single intravitreal injection, all dose groups

CCOc1ccc(C[C@@H](NC(=O)c2ccccc2)C(=O)N[C@@H](Cc2ccccc2)C(=O)NCc2ccc(CN)cc2)cc1 [compound of Formula A, N—[(R)-1-[(S)-1-(4-Aminomethyl-benzylcarbamoyl)-2-phenyl-ethylcarbamoyl]-2-(4-ethoxy-phenyl)-ethyl]-benzamide]
Adverse events leading to withdrawal from the study (14 subjects, all dose groups): nor did any event lead to withdrawal from the study | Deaths or other serious adverse events (14 subjects, all dose groups): no deaths or other serious adverse events | Severe events (14 subjects, all dose groups): 1 patient | Study drug-related events (14 subjects, all dose groups): 2 patients | Subjects who reported at least one adverse event (%) [1]: 71% | Subjects who reported at least one adverse event (number) [1]: 10 subjects | Adverse systemic effect (review of adverse events, laboratory results, ECG and physical examinations): no evidence of any adverse effect associated with systemic exposure | Tolerability of intravitreal injection (single intravitreal injection, 1, 3 or 10 μg): well tolerated
